The subject of one assay is CHO. In words: Cytotoxicity against CHO cell line. It is filed as functional, cell-based. The conditions noted are these: Cricetulus griseus.
Assay [1] has as its system Mammalian polyamine transporter. In words: Inhibition of [14C]spermidine uptake into polyamine transporter expressed in L1210 cells. It is filed as functional, cell-based, Mus musculus.
In the next assay the test system is CHO-MG. In words: Cytotoxicity against CHO-MG cell line. It is filed as functional, cell-based. The conditions noted are these: Cricetulus griseus.
The nature of assay [2]: Selectivity for CHO cells over CHO-MG cells. It is filed as functional.

As a reminder, the IC50 is the concentration that gives 50% inhibition. Lower therefore signals greater potency in that assay. The Ki is the equilibrium dissociation constant of an inhibitor or competing ligand from its target. Consider `CCN(CCCNCCCN)Cc1c2ccccc2cc2ccccc12.Cl.Cl.Cl`, for which the IC50 worked out at 5.3 µM with CHO and 4 µM in the assay on CHO-MG. Besides, in assay [1], the Ki amounted to 23.5 µM. In addition, the “Ratio IC50” value in assay [2] is listed as 0.8.

For the origin of these results see ChEMBL document CHEMBL1146095, “Modeling the preferred shapes of polyamine transporter ligands and dihydromotuporamine-C mimics: shovel versus hoe” (J Med Chem, 2006).
